# Reference: patent US20250019373A1, “ARYL OR HETEROARYL DERIVATIVE, AND PHARMACEUTICAL COMPOSITION COMPRISING SAME AS ACTIVE INGREDIENT FOR PREVENTION OR TREATMENT OF KINASE-RELATED DISEASES” (VORONOI INC., priority 2021, published 2025)
# pEC50: −log10 of the molar value.
# Tested on: HT-29 cells
# Assay: Cell necrosis inhibitory activity under necroptosis-inducing conditions (TNF-α, Z-VAD-FMK, LCL161) in HT-29 cells, Cell Titer-Glo
# Type: cell-based
# Settings: Homo sapiens, 100 ng/mL TNF-α + 25 μM Z-VAD-FMK + Smac mimetic LCL161, 24 hours, cell viability
# Description: To evaluate the cell necrosis inhibitory activity of the compound according to the present invention, an experiment was conducted as follows.
# To evaluate the efficacy of inhibiting cell necrosis under TNF-α-mediated cell death-inducing conditions, a HT-29 cell line (Korean Cell Line Bank Accession No. #30038) was cultured in RPMI-1640 (HyClone #SH3027.01) medium containing 10% fetal bovine serum (FBS) and 1% penicillin/streptomycin to analyze cell viability. More specifically, for testing, the cell line was seeded in a 96-well flat bottom plate (Corning #3903) at a concentration of 10,000 cells/well and incubated at 37° C. under a 5% CO2 condition for 24 hours. Each well was treated with 100 ng/mL TNF-α, 25 μM pan-caspase inhibitor (Z-VAD-FMK, Selleckchem #S8102), and 10 µM Smac mimetic LCL161 (Selleckchem #S7009) and allowed to react for 10 minutes. The compounds of Examples were treated at 11 concentrations (the highest concentration being 0.1 μM or 1 μM) with a 3-fold concentration gradient, and as a control, dimethyl sulfoxide (DMSO) was treated at a concentration of 0.05% (v/v), which is the same as those when the compounds were treated. The treated cells were incubated for 24 hours. To confirm the degree of cell viability, 100 μL of Cell Titer-Glo (Promega #G7573) was added to the medium of the cultured cells and cultured for additional 10 minutes, and then luminescence was measured using a microplate reader. Based on the […] of control cells that were not treated with the compound, the degree of cell necrosis inhibitory activity was calculated according to the treatment concentration of each compound. Here, the concentration at which the cell necrosis inhibitory activity was 50% was determined as an EC50 (nM) value and calculated using Prism (ver. 8.4.3 #GraphPad) software.
row,SMILES,pEC50
1,"CC(=O)Nc1cn2nc(-c3cccc(NC(=O)N4OCC[C@H]4c4ccccc4)c3)ccc2n1 [Example 1, (S)-N-(3-(2-acetamidoimidazo[1,2-b]pyridazin-6-yl)phenyl)-3-phenylisoxazolidine-2-carboxamide]",9.05
2,"O=C(Nc1cn2nc(-c3cccc(NC(=O)N4OCC[C@H]4c4ccccc4)c3)ccc2n1)C1CC1 [Example 2, (S)-N-(3-(2-(cyclopropanecarboxamido)imidazo[1,2-b]pyridazin-6-yl)phenyl)-3-phenylisoxazolidine-2-carboxamide]",9.70
3,"COc1ncc(-c2ccc3nc(NC(=O)C4CC4)cn3n2)cc1NC(=O)N1OCC[C@H]1c1ccccc1 [Example 4, (S)-N-(5-(2-(cyclopropanecarboxamido)imidazo[1,2-b]pyridazin-6-yl)-2-methoxypyridin-3-yl)-3-phenylisoxazolidine-2-carboxamide]",9.70
4,"COc1ncc(-c2ccc3nc(NC(=O)CO)cn3n2)cc1NC(=O)N1OCC[C@H]1c1ccccc1 [Example 5, (S)-N-(5-(2-(2-hydroxyacetamido)imidazo[1,2-b]pyridazin-6-yl)-2-methoxypyridin-3-yl)-3-phenylisoxazolidine-2-carboxamide]",8.54
5,"COCC(=O)Nc1cn2nc(-c3cnc(OC)c(NC(=O)N4OCC[C@H]4c4ccccc4)c3)ccc2n1 [Example 6, (S)-N-(2-methoxy-5-(2-(2-methoxyacetamido)imidazo[1,2-b]pyridazin-6-yl)pyridin-3-yl)-3-phenylisoxazolidine-2-carboxamide]",9.05
6,"COc1ncc(-c2ccc3nc(N)cn3n2)cc1NC(=O)N1OCC[C@H]1c1ccccc1 [Example 7, (S)-N-(5-(2-aminoimidazo[1,2-b]pyridazin-6-y1)-2-methoxypyridin-3-yl)-3-phenylisoxazolidine-2-carboxamide]",7.40
7,"COc1ccc(-c2ccc3nc(NC(C)=O)cn3n2)cc1NC(=O)N1OCC[C@H]1c1ccccc1 [Example 8, (S)-N-(5-(2-acetamidoimidazo[1,2-b]pyridazin-6-yl)-2-methoxyphenyl)-3-phenylisoxazolidine-2-carboxamide]",9.40
8,"Cc1ncc(-c2ccc3nc(NC(=O)C4CC4)cn3n2)cc1NC(=O)N1OCC[C@H]1c1ccccc1 [Example 10, (S)-N-(5-(2-(cyclopropanecarboxamido)imidazo[1,2-b]pyridazin-6-yl)-2-methylpyridin-3-yl)-3-phenylisoxazolidine-2-carboxamide]",9.52
9,"CC(=O)Nc1cn2nc(-c3cnc(C)c(NC(=O)N4OCC[C@H]4c4ccccc4)c3)ccc2n1 [Example 11, (S)-N-(5-(2-acetamidoimidazo[1,2-b]pyridazin-6-yl)-2-methylpyridin-3-yl)-3-phenylisoxazolidine-2-carboxamide]",9.05
10,"COc1ncc(-c2ccc3nnn(C(C)C)c3c2)cc1NC(=O)N1OCC[C@H]1c1ccccc1 [Example 12, (S)-N-(5-(1-isopropyl-1H-benzo[d][1,2,3]triazol-6-yl)-2-methoxypyridin-3-yl)-3-phenylisoxazolidine-2-carboxamide]",7.86
11,"COc1ncc(-c2ccc3nc(NC(C)=O)oc3c2)cc1NC(=O)N1OCC[C@H]1c1ccccc1 [Example 13, (S)-N-(5-(2-acetamidobenzo[d]oxazol-6-yl)-2-methoxypyridin-3-yl)-3-phenylisoxazolidine-2-carboxamide]",8.59
12,"COc1ncc(-c2ccc3nc(NC(C)=O)sc3n2)cc1NC(=O)N1OCC[C@H]1c1ccccc1 [Example 14, (S)-N-(5-(2-acetamidothiazolo[5,4-b]pyridin-5-yl)-2-methoxypyridin-3-yl)-3-phenylisoxazolidine-2-carboxamide]",9.15
13,"COc1ccc(-c2ccc3nnn(C(C)C)c3c2)cc1NC(=O)N1OCC[C@H]1c1ccccc1 [Example 15, (S)-N-(5-(1-isopropyl-1H-benzo[d][1,2,3]triazol-6-yl)-2-methoxyphenyl)-3-phenylisoxazolidine-2-carboxamide]",7.62
14,"COc1ccc(-c2ccc3nc(NC(C)=O)oc3c2)cc1NC(=O)N1OCC[C@H]1c1ccccc1 [Example 16, (S)-N-(5-(2-acetamidobenzo[d]oxazol-6-yl)-2-methoxyphenyl)-3-phenylisoxazolidine-2-carboxamide]",8.31
15,"CNC(=O)c1n[nH]c2cc(-c3cccc(NC(=O)N4OCC[C@H]4c4ccccc4)c3)ccc12 [Example 17, (S)-N-(3-(3-(methylcarbamoyl)-1H-indazol-6-yl)phenyl)-3-phenylisoxazolidine-2-carboxamide]",10.00
16,"CNC(=O)c1n[nH]c2cc(-c3cc(NC(=O)N4OCC[C@H]4c4ccccc4)cnc3C)ccc12 [Example 18, (S)-N-(6-methyl-5-(3-(methylcarbamoyl)-1H-indazol-6-yl)pyridin-3-y1)-3-phenylisoxazolidine-2-carboxamide]",9.52
17,"CNC(=O)c1n[nH]c2cc(-c3cncc(NC(=O)N4OCC[C@H]4c4ccccc4)c3)ccc12 [Example 19, (S)-N-(5-(3-(methylcarbamoyl)-1H-indazol-6-yl)pyridin-3-yl)-3-phenylisoxazolidine-2-carboxamide]",9.00
18,"CN(C)C1CCC(NC(=O)c2n[nH]c3cc(-c4cccc(NC(=O)N5OCC[C@H]5c5ccccc5)c4)ccc23)CC1 (stereo partly drawn) [Example 20, (S)-N-(3-(3-((4-(dimethylamino)cyclohexyl)carbamoyl)-1H-indazol-6-yl)phenyl)-3-phenylisoxazolidine-2-carboxamide]",9.52
19,"CNC(=O)c1n[nH]c2cc(-c3cnc(C)c(NC(=O)N4OCC[C@H]4c4ccccc4)c3)ccc12 [Example 21, (S)-N-(2-methyl-5-(3-(methylcarbamoyl)-1H-indazol-6-yl)pyridin-3-yl)-3-phenylisoxazolidine-2-carboxamide]",9.40
20,"CNC(=O)c1n[nH]c2cc(-c3cnc(OC)c(NC(=O)N4OCC[C@H]4c4ccccc4)c3)ccc12 [Example 22, (S)-N-(2-methoxy-5-(3-(methylcarbamoyl)-1H-indazol-6-yl)pyridin-3-yl)-3-phenylisoxazolidine-2-carboxamide]",9.52
21,"CNC(=O)c1n[nH]c2cc(-c3cc(NC(=O)N4OCC[C@H]4c4ccccc4)cnc3OC)ccc12 [Example 23, (S)-N-(6-methoxy-5-(3-(methylcarbamoyl)-1H-indazol-6-yl)pyridin-3-y1)-3-phenylisoxazolidine-2-carboxamide]",8.09
22,"CNC(=O)c1n[nH]c2cc(-c3ccc(OC)c(NC(=O)N4OCC[C@H]4c4ccccc4)c3)ccc12 [Example 24, (S)-N-(2-methoxy-5-(3-(methylcarbamoyl)-1H-indazol-6-yl)phenyl)-3-phenylisoxazolidine-2-carboxamide]",9.40
23,"O=C(Nc1nc2ccc(-c3cccc(NC(=O)N4OCC[C@H]4c4ccccc4)c3)cc2s1)C1CC1 [Example 25, (S)-N-(3-(2-(cyclopropanecarboxamido)benzo[d]thiazol-6-yl)phenyl)-3-phenylisoxazolidine-2-carboxamide]",9.70
24,"COc1ncc(-c2ccc3nc(NC(C)=O)sc3c2)cc1NC(=O)N1OCC[C@H]1c1ccccc1 [Example 26, (S)-N-(5-(2-acetamidobenzo[d]thiazol-6-yl)-2-methoxypyridin-3-yl)-3-phenylisoxazolidine-2-carboxamide]",9.15
25,"COc1ccc(-c2ccc3nc(NC(C)=O)sc3c2)cc1NC(=O)N1OCC[C@H]1c1ccccc1 [Example 27, (S)-N-(5-(2-acetamidobenzo[d]thiazol-6-yl)-2-methoxyphenyl)-3-phenylisoxazolidine-2-carboxamide]",9.00
26,"CC(=O)Nc1nc2ccc(-c3cnc(C)c(NC(=O)N4OCC[C@H]4c4ccccc4)c3)cc2s1 [Example 28, (S)-N-(5-(2-acetamidobenzo[d]thiazol-6-yl)-2-methylpyridin-3-yl)-3-phenylisoxazolidine-2-carboxamide]",9.70
27,"Cc1ncc(-c2ccc3nc(NC(=O)C4CC4)sc3c2)cc1NC(=O)N1OCC[C@H]1c1ccccc1 [Example 29, (S)-N-(5-(2-(cyclopropanecarboxamido)benzo[d]thiazol-6-yl)-2-methylpyridin-3-yl)-3-phenylisoxazolidine-2-carboxamide]",10.00
28,"COc1ccc(-c2ccc3nc(N)nn3c2)cc1NC(=O)N1OCC[C@H]1c1ccccc1 [Example 31, (S)-N-(5-(2-amino-[1,2,4]triazolo[1,5-a]pyridin-6-yl)-2-methoxyphenyl)-3-phenylisoxazolidine-2-carboxamide]",8.34
29,"Cc1ccc(-c2ccc3nc(N)nn3c2)cc1NC(=O)N1OCC[C@H]1c1ccccc1 [Example 32, (S)-N-(5-(2-amino-[1,2,4]triazolo[1,5-a]pyridin-6-yl)-2-methylphenyl)-3-phenylisoxazolidine-2-carboxamide]",9.22
30,"Cc1ncc(-c2ccc3nc(N)nn3c2)cc1NC(=O)N1OCC[C@H]1c1ccccc1 [Example 33, (S)-N-(5-(2-amino-[1,2,4]triazolo[1,5-a]pyridin-6-yl)-2-methylpyridin-3-yl)-3-phenylisoxazolidine-2-carboxamide]",8.92
